According to ChEMBL document CHEMBL3596163, “Discovery of imidazo[1,5-a]pyridines and -pyrimidines as potent and selective RORc inverse agonists” (Bioorg Med Chem Lett, 2015):
Calls of active or inactive are those of the source. The rule behind the calls is not given here.

Experiments:
[1] = target: T1, Oxysterols receptor LXR-beta (Homo sapiens, UniProt P55055); assay: Agonist activity at GAL4-fused human LXRbeta expressed in HEK293T cells assessed as activation of basal transcriptional activity after 20 hrs by dual-glo luciferase reporter gene assay; type: cell-based, HEK-293T
T1 sequence (P55055 whole entry): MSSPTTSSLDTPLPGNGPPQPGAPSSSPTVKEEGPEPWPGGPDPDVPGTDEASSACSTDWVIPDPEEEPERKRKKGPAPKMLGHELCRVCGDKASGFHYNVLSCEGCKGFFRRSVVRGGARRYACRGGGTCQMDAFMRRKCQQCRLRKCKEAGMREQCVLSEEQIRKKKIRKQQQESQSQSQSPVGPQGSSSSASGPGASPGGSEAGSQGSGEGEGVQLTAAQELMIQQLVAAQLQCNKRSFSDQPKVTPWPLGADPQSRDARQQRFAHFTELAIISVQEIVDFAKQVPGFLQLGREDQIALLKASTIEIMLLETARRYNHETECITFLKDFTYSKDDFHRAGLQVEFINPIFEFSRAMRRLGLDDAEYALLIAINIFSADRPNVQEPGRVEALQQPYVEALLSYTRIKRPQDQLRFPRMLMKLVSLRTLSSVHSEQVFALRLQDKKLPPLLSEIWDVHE

[2] = target: T2, Oxysterols receptor LXR-beta (Homo sapiens) (UniProt P55055); assay: Antagonist activity at GAL4-fused human LXRbeta expressed in HEK293T cells assessed as inhibition of T0901317-induced basal transcriptional activity up to 10 uM after 20 hrs by dual-glo luciferase reporter gene assay; type: cell-based; settings: HEK-293T
T2 sequence (whole entry): T1 sequence (P55055 whole entry)

[3] = target: T3, Nuclear receptor subfamily 1 group I member 2 (Homo sapiens, UniProt O75469); assay: Agonist activity at GAL4-fused human PXR expressed in HEK293T cells assessed as activation of basal transcriptional activity after 20 hrs by dual-glo luciferase reporter gene assay; type: cell-based, HEK-293T
T3 sequence (O75469 whole entry): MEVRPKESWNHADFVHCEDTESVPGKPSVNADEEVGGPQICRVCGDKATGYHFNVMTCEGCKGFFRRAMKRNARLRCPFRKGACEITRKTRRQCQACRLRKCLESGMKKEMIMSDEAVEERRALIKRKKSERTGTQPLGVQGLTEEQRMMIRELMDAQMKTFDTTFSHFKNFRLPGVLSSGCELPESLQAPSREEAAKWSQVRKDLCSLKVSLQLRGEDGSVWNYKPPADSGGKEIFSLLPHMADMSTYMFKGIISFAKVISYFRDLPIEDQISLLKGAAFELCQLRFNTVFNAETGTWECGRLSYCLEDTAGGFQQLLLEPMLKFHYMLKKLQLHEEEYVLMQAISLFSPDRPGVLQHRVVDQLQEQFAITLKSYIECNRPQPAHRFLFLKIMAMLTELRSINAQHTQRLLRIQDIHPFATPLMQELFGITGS

[4] = test system: PBMC; assay: Antiinflammatory activity in human PBMC assessed as inhibition of IL-17 production after 48 hrs by Sandwich ELISA relative to control; type: functional
[5] = target: T4, Bile acid receptor (Homo sapiens, UniProt Q96RI1); assay: Agonist activity at GAL4-fused human FXR expressed in HEK293T cells assessed as activation of basal transcriptional activity after 20 hrs by dual-glo luciferase reporter gene assay; type: cell-based, HEK-293T
T4 sequence (Q96RI1 whole entry): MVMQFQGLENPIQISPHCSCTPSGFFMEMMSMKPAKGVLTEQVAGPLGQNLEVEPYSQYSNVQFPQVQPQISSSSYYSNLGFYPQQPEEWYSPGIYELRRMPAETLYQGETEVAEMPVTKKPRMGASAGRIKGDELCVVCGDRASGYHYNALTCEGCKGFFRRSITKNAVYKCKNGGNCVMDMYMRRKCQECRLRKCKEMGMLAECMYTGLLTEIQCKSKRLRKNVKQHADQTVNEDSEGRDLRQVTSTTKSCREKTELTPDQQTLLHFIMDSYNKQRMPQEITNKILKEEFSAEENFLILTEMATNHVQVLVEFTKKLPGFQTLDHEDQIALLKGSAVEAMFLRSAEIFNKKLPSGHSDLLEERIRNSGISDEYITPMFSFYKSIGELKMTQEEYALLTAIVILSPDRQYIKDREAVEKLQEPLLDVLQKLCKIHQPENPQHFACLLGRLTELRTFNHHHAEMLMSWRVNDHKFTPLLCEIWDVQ

[6] = target: T3, Nuclear receptor subfamily 1 group I member 2; assay: Antagonist activity at GAL4-fused human PXR expressed in HEK293T cells assessed as inhibition of T0901317-induced basal transcriptional activity up to 10 uM after 20 hrs by dual-glo luciferase reporter gene assay; type: cell-based; settings: hek-293t
[7] = target: T5, Nuclear receptor ROR-alpha (Homo sapiens, UniProt P35398); assay: Inverse agonist activity at GAL4-fused human RORa expressed in HEK293T cells assessed as suppression of basal transcriptional activity after 20 hrs by dual-glo luciferase reporter gene assay; type: cell-based, HEK-293T
T5 sequence (P35398 whole entry): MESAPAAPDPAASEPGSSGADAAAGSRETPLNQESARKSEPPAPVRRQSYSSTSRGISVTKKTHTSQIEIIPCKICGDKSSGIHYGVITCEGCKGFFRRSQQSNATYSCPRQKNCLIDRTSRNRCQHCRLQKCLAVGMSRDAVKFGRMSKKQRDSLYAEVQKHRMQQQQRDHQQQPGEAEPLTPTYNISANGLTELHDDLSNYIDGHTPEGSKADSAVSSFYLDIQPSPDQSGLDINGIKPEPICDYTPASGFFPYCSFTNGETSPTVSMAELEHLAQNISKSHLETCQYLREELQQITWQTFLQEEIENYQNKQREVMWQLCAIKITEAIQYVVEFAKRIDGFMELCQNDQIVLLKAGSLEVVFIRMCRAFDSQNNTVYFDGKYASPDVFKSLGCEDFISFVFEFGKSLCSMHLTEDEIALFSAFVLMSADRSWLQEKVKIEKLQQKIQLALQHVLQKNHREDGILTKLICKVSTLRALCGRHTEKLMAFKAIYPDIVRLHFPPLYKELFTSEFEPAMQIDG

[8] = target: T6, Oxysterols receptor LXR-alpha (Homo sapiens, UniProt Q13133); assay: Agonist activity at GAL4-fused human LXRalpha expressed in HEK293T cells assessed as activation of basal transcriptional activity after 20 hrs by dual-glo luciferase reporter gene assay; type: cell-based, HEK-293T
T6 sequence (Q13133 whole entry): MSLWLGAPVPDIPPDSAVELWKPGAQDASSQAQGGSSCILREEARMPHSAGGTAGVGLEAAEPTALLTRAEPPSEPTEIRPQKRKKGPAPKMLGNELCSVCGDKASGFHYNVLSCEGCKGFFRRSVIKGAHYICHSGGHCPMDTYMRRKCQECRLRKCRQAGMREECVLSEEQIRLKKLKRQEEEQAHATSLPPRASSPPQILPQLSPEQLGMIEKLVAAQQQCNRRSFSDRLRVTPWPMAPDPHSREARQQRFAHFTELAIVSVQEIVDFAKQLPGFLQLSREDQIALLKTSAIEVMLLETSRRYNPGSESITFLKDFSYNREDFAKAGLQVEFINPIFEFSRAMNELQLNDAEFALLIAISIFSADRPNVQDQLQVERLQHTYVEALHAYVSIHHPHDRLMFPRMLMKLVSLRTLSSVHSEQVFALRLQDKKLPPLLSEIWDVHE

[9] = test system: PBMC; assay: Cytotoxicity against human PBMC assessed as effect on cell physiology after 48 hrs by CellTiter-Glo assay; type: cell-based

SMILES | EC50 [1] [µM] | inhibition [2] | EC50 [3] [µM] | %max [4] [%] | EC50 [5] [µM] | inhibition (INH) [6] | EC50 [7] [µM] | EC50 [8] [µM] | EC50 [9] [µM]
O=C(O)c1ccc(-c2nc(C(=O)c3c(Cl)cccc3C(F)(F)F)n3ccccc23)cc1O | > 10 | inactive | > 10 | 70 | > 10 | Not Active | > 10 | > 10 | > 10
O=C(O)c1ccc(-c2nc(C(=O)c3c(Cl)cccc3C3CC3)n3c2CCCC3)c(F)c1 | > 10 | inactive | > 10 | 72 | > 10 | Not Active | > 10 | > 10 | > 10
O=C(O)c1ccc(-c2nc(C(=O)c3c(Cl)cccc3C(F)(F)F)n3ccccc23)cc1 | > 10 | inactive | > 10 | 69 | > 10 | Not Active | > 10 | > 10 | > 10
O=C(O)c1ccc(-c2nc(C(=O)c3c(Cl)cccc3C(F)(F)F)n3ccccc23)c(F)c1 | > 10 | inactive | > 10 | 63 | > 10 | Not Active | > 10 | > 10 | > 10
O=C(O)c1ccc(-c2nc(C(=O)c3c(Cl)cccc3C3CC3)n3cccnc23)cc1O | > 10 | inactive | > 10 | 73 | > 10 | Not Active | > 10 | > 10 | > 10
O=C(O)c1ccc(-c2nc(C(=O)c3c(Cl)cccc3C(F)(F)F)n3c2CCCC3)c(F)c1 | > 10 | inactive | > 10 | 64 | > 10 | Not Active | > 10 | > 10 | > 10
